Molecules are shown by their SMILES. pIC50: −log10 of the molar value.

For one experiment, the target named is T1, ALK5 (Homo sapiens, UniProt P36897).
T1 construct: purchased Reaction Biology Corp (Malvern, PA)
T1 sequence (P36897 34-503): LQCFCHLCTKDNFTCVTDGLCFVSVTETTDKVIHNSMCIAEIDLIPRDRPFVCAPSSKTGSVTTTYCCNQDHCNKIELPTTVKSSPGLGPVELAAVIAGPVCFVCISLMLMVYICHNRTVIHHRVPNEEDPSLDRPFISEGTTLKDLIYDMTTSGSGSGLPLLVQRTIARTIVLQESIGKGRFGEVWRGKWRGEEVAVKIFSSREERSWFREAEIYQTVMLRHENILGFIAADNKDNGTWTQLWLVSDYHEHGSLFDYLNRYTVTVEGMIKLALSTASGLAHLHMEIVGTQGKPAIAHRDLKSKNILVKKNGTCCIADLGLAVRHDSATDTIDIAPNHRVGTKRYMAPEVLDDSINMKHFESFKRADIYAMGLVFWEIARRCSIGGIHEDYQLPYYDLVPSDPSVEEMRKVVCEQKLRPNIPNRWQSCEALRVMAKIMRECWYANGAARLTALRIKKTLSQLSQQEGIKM
Nature of the experiment: ALK5 enzyme inhibition assay (33P-ATP filter-binding, Reaction Biology Corp). In kind it is biochemical. As to conditions: casein substrate 1 mg/mL, 10 uM ATP. The procedure:
ALK5 enzyme inhibition assays were performed by Reaction Biology Corp (Malvern, PA). 1 mg/mL of peptide subtrate (casein) and 10 uM ATP were prepared in a mixture of fresh reaction buffer. The kinase was delivered into the substrate solution which was gently mixed. Compounds in 100% DMSO were added to the kinase reaction mixture by Acoustic technology (Echo550; nanoliter range) and the mixture was incubated for 20 min at room temperature. ^33P-ATP (Specific activity 10 uCi/uL) was added into the reaction mixture to initiate the reaction and the reaction mixture was incubated for 2 hours at room temperature. Radioactivity was detected by filter-binding method and kinase activity data were expressed as the percent remaining kinase activity in test samples compared to vehicle (dimethyl sulfoxide) reactions. IC50 values and curve fits were obtained using Prism (GraphPad Software).

The test system of experiment [1] is TGFb/SMAD Signaling Pathway SBE reporter cell line. Nature of the experiment: TGFb reporter assay (luciferase). As to conditions: 5-6 h preincubation, then TGFb, 18 h, luminescence. The class given is cell-based. The procedure: TGFb/SMAD Signaling Pathway SBE reporter cell line was obtained from BPS Bioscience. Cells were passed/expanded/stored in liquid nitrogen per supplier's instruction with the exception that growth media was changed to DMEM-C with Geneticin (DMEM supplemented with 10% fetal bovine serum, 1× NEAA, 1 mM Pyruvate, 2 mM glutamine, 50 μg/mL penicillin, 50 U/mL streptomycin and 400 ug/mL of Geneticin). The assay media was MEM supplemented with 0.5% fetal bovine serum, 1× NEAA, 1 mM Pyruvate, 50 μg/mL penicillin and 50 U/mL streptomycin.
Reporter cells were harvested from the tissue culture flasks by incubation in small quantity of Versene at room temperature for three to five minutes after the media in the flask was removed and cells rinsed with PBS. Cells were counted and diluted in the assay media at ˜0.8×10^6 cells/mL then 50 uL/well were added to 96-well assay plate. Test samples (at desired concentrations diluted in assay media) were added to assay plate containing the 50 uL/well of cells (or media only), 50 uL per well, and incubated for 5-6 hours at 37° C. in a 5% CO2 humidified incubator. After that time, 15 uL of TGFb diluted to 12.5 ng/mL in the assay media was added to the plate. Controls included TGFb titration (from 25 to 0 ng/mL) without inhibitors, and media only (without cells, inhibitor or TGFb). Plates were incubated at 37° C. in a 5% CO2 humidified incubator for 18 h. Luciferase substrate solution was subsequently added at 75 uL per well, incubated in dark with shaking at room temperature for 10 min, and luminescence was measured using a luminometer.
A general note: Reporter assays use an easily measured gene product as a stand-in for the process of interest.

Take `Cc1cccc(-c2nc(CNCC3CC3)[nH]c2-c2ccc3ncnn3c2)n1` [Compound 1.8, 1-(5-([1,2,4]triazolo[1,5-a]pyridin-6-yl)-4-(6-methylpyridin-2-yl)-1H-imidazol-2-yl)-N-(cyclopropyl-methyl)methanamine]: the pIC50 (commonly the IC50 on a negative log10 scale, so that one unit is a factor of ten) on ALK5 was 5.00 to 6.00; in experiment [1], 6.00 to 7.00.

Consider `Cc1cccc(-c2nc(CNC3CCC3)[nH]c2-c2ccc3ncnn3c2)n1` [Compound 1.10, 1-(5-([1,2,4]triazolo[1,5-a]pyridin-6-yl)-4-(6-methylpyridin-2-yl)-1H-imidazol-2-yl)-N-(cyclobutyl)methanamine], for which the pIC50 on ALK5 was 5.00 to 6.00; in experiment [1], 6.00 to 7.00.

In the case of `Cc1cccc(-c2nc(CNC3CCCC3)[nH]c2-c2ccc3ncnn3c2)n1` [Compound 1.11, 1-(5-([1,2,4]triazolo[1,5-a]pyridin-6-yl)-4-(6-methylpyridin-2-yl)-1H-imidazol-2-yl)-N-(cyclopentyl)methanamine], the pIC50 was 6.00 to 7.00 on ALK5 and 7.00 to 8.00 in experiment [1].

Turning to `Cc1cccc(-c2nc(CNC3CCCCC3)[nH]c2-c2ccc3ncnn3c2)n1` [Compound 1.12, 1-(5-([1,2,4]triazolo[1,5-a]pyridin-6-yl)-4-(6-methylpyridin-2-yl)-1H-imidazol-2-yl)-N-(cyclohexyl)methanamine], the pIC50 was 6.00 to 7.00 at ALK5 and 7.00 to 8.00 in experiment [1].

For `Cc1cccc(-c2nc(CNC3CCCCCC3)[nH]c2-c2ccc3ncnn3c2)n1` [Compound 1.13, 1-(5-([1,2,4]triazolo[1,5-a]pyridin-6-yl)-4-(6-methylpyridin-2-yl)-1H-imidazol-2-yl)-N-(cycloheptyl)methanamine], the pIC50 is 6.00 to 7.00 on ALK5 and 7.00 to 8.00 in experiment [1].

With `Cc1cccc(-c2nc(CNC3CCOCC3)[nH]c2-c2ccc3ncnn3c2)n1` [Compound 1.14, 1-(5-([1,2,4]triazolo[1,5-a]pyridin-6-yl)-4-(6-methylpyridin-2-yl)-1H-imidazol-2-yl)-N-(4-tetrahydropyranyl)methanamine], the pIC50 was 6.00 to 7.00 on ALK5 and 7.00 to 8.00 in experiment [1].

As for `Cc1cccc(-c2nc(CNc3cncc(CN)c3)[nH]c2-c2ccc3ncnn3c2)n1` [Compound 1.19, N-((5-([1,2,4]triazolo[1,5-a]pyridin-6-yl)-4-(6-methylpyridin-2-yl)-1H-imidazol-2-yl)methyl)-5-(aminomethyl)pyridin-3-amine], the pIC50 is 5.00 to 6.00 at ALK5 and 6.00 to 7.00 in experiment [1].

As to `CC(=O)NC1Cc2ccc(NCc3nc(-c4cccc(C)n4)c(-c4ccc5ncnn5c4)[nH]3)cc2C1` (stereo not drawn) [Compound 1.25, N-(5-(((5-([1,2,4]triazolo[1,5-a]pyridin-6-yl)-4-(6-methylpyridin-2-yl)-1H-imidazol-2-yl)methyl)amino)-2,3-dihydro-1H-inden-2-yl)acetamide], the pIC50 (at ALK5; in experiment [1]) was 6.00 to 7.00 throughout.

`Cc1cccc(-c2nc(CNC3Cc4ccccc4C3)[nH]c2-c2ccc3ncnn3c2)n1` [Compound 1.27, N-((5-([1,2,4]triazolo[1,5-a]pyridin-6-yl)-4-(6-methylpyridin-2-yl)-1H-imidazol-2-yl)methyl)-2,3-dihydro-1H-inden-2-amine]: the pIC50 at ALK5 is 6.00 to 7.00; in experiment [1] it was 7.00 to 8.00.

Regarding `Cc1cccc(-c2nc(CN[C@@H]3CCc4ccccc43)[nH]c2-c2ccc3ncnn3c2)n1` [Compound 1.30, (R)-N-((5-([1,2,4]triazolo[1,5-a]pyridin-6-yl)-4-(6-methylpyridin-2-yl)-1H-imidazol-2-yl)methyl)-2,3-dihydro-1H-inden-1-amine], the pIC50 on ALK5 is 6.00 to 7.00; in experiment [1], 7.00 to 8.00.

As for `Cc1cccc(-c2nc(CNc3cccc4c3CNC4)[nH]c2-c2ccc3ncnn3c2)n1` [Compound 1.31, N-((5-([1,2,4]triazolo[1,5-a]pyridin-6-yl)-4-(6-methylpyridin-2-yl)-1H-imidazol-2-yl)methyl)isoindolin-4-amine], the pIC50 (at ALK5; in experiment [1]) was 6.00 to 7.00 throughout.

For the molecule `Cc1cccc(-c2nc(CN[C@H]3CCCC[C@@H]3F)[nH]c2-c2ccc3ncnn3c2)n1` [Compound 1.32, (1S,2S)-N-((5-([1,2,4]triazolo[1,5-a]pyridin-6-yl)-4-(6-methylpyridin-2-yl)-1H-imidazol-2-yl)methyl)-2-fluorocyclohexan-1-amine], the pIC50 is 7.00 to 8.00 at ALK5 and 6.00 to 7.00 in experiment [1].

As to `Cc1cccc(-c2nc(CN3CCCCC3)[nH]c2-c2ccn3ncnc3c2)n1` [Compound 1.35, 7-(4-(6-methylpyridin-2-yl)-2-(piperidin-1-ylmethyl)-1H-imidazol-5-yl)-[1,2,4]triazolo[1,5-a]pyridine], the values for the pIC50 (on ALK5; in experiment [1]) were 5.00 to 6.00 and 6.00 to 7.00, respectively.

Take `Cc1cccc(-c2nc(CN3CCc4ccccc4C3)[nH]c2-c2ccn3ncnc3c2)n1` [Compound 1.40, 2-((5-([1,2,4]triazolo[1,5-a]pyridin-7-yl)-4-(6-methylpyridin-2-yl)-1H-imidazol-2-yl)methyl)-1,2,3,4-tetrahydroisoquinoline]: the pIC50 (on ALK5; in experiment [1]) was 6.00 to 7.00 throughout.

Consider `Cc1cccc(-c2nc(CNCc3ccc4c(c3)OCO4)[nH]c2-c2ccc3ncnn3c2)n1` [Compound 1.41, 1-(5-([1,2,4]triazolo[1,5-a]pyridin-6-yl)-4-(6-methylpyridin-2-yl)-1H-imidazol-2-yl)-N-(benzo[d][1,3]dioxol-5-ylmethyl)methanamine], for which the pIC50 (on ALK5; in experiment [1]) was 6.00 to 7.00 in each case.

For the molecule `Cc1cccc(-c2nc(CNCC3CCCCC3)[nH]c2-c2ccc3ncnn3c2)n1` [Compound 1.42, 1-(5-([1,2,4]triazolo[1,5-a]pyridin-6-yl)-4-(6-methylpyridin-2-yl)-1H-imidazol-2-yl)-N-(cyclohexylmethyl)methanamine], the pIC50 is 6.00 to 7.00 on ALK5 and 7.00 to 8.00 in experiment [1].

Turning to `Cc1cccc(-c2nc(CN[C@H]3c4ccccc4C[C@H]3O)[nH]c2-c2ccc3ncnn3c2)n1` [Compound 1.43, (1S,2R)-1-(((5-([1,2,4]triazolo[1,5-a]pyridin-6-yl)-4-(6-methylpyridin-2-yl)-1H-imidazol-2-yl)methyl)amino)-2,3-dihydro-1H-inden-2-ol], the pIC50 (on ALK5; in experiment [1]) was 7.00 to 8.00 in each case.

Regarding `Cc1cccc(-c2nc(CN[C@@H]3c4ccccc4C[C@@H]3O)[nH]c2-c2ccc3ncnn3c2)n1` [Compound 1.44, (1R,2S)-1-(((5-([1,2,4]triazolo[1,5-a]pyridin-6-yl)-4-(6-methylpyridin-2-yl)-1H-imidazol-2-yl)methyl)amino)-2,3-dihydro-1H-inden-2-ol], the pIC50 on ALK5 was 6.00 to 7.00; in experiment [1] it was 7.00 to 8.00.

Take `Cc1cccc(-c2nc(CN[C@H]3c4ccccc4C[C@@H]3O)[nH]c2-c2ccc3ncnn3c2)n1` [Compound 1.45, (1S,2S)-1-(((5-([1,2,4]triazolo[1,5-a]pyridin-6-yl)-4-(6-methylpyridin-2-yl)-1H-imidazol-2-yl)methyl)amino)-2,3-dihydro-1H-inden-2-ol]: the pIC50 was 6.00 to 7.00 at ALK5 and 7.00 to 8.00 in experiment [1].

As to `Cc1cccc(-c2nc(CN[C@@H]3c4ccccc4C[C@H]3O)[nH]c2-c2ccc3ncnn3c2)n1` [Compound 1.46, (1R,2R)-1-(((5-([1,2,4]triazolo[1,5-a]pyridin-6-yl)-4-(6-methylpyridin-2-yl)-1H-imidazol-2-yl)methyl)amino)-2,3-dihydro-1H-inden-2-ol], the negative logarithm of the IC50 (pIC50) is 6.00 to 7.00 on ALK5 and 7.00 to 8.00 in experiment [1].

Regarding `Cc1cccc(-c2nc(CN3Cc4ccccc4C3=O)[nH]c2-c2ccc3ncnn3c2)n1` [Compound 1.56, 2-((5-([1,2,4]triazolo[1,5-a]pyridin-6-yl)-4-(6-methylpyridin-2-yl)-1H-imidazol-2-yl)methyl)isoindolin-1-one], the pIC50 on ALK5 was 6.00 to 7.00; in experiment [1] it was 7.00 to 8.00.

The values are drawn from patent publication US20210154188A1, “ALK5 INHIBITORS, CONJUGATES, AND USES THEREOF” (SILVERBACK THERAPEUTICS, INC., priority 2018, published 2021).
